Laboratory results reported in paper PMC6059433, “Discovery of fragments that target key interactions in the signal recognition particle (SRP) as potential leads for a new class of antibiotics” (PLoS ONE, 2018).

Molecular target: T1, FtsY (FtsYNG) (Escherichia coli, UniProt P10121)
T1 construct: NG domain, 196–497 aa
Experiment: SPR (positive control, […] MgCl2 in running buffer); […]-TROSY-HSQC titration
Assay type: binding

T1 sequence (P10121 196-497): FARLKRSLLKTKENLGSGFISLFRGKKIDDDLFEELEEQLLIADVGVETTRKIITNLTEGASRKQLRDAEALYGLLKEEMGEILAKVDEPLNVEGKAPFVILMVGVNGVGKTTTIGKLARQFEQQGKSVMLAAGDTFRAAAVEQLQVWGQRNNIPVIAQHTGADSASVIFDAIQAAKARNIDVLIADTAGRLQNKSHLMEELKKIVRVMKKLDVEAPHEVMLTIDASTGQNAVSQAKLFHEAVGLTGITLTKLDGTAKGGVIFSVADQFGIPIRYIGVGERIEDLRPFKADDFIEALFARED

With `Nc1nc2c(ncn2[C@@H]2O[C@H](COP(=O)(O)OP(=O)(O)NP(=O)(O)O)[C@@H](O)[C@H]2O)c(=O)[nH]1` [GMPPNP] the Kd was 280 ± 80 µM.
